# Values joined by “and” are separate entries in the source; they are usually repeats but may differ in a detail not shown here. Equal entries are not always repeated.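 Following 48 hours of exposure in 96-well plates, responses at five concentrations were used to interpolate endpoints linearly. GI50 marks 50% less growth. Definition used: TGI = concentration required for complete inhibition of growth.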
# Columns and labels:
# Test in all cases: DTP human tumour cell line panel, 48 h
# BT-549 breast = system: BT-549 breast
# PC-3 prostate = system: PC-3 prostate
# TK-10 renal = system: TK-10 renal
# HT29 colon = system: HT29 colon
# A549 NSCLC = system: A549 NSCLC
# A498 renal = system: A498 renal
# NCI-H522 lung = system: NCI-H522 lung
# NCI-H23 lung = system: NCI-H23 lung
SMILES,GI50 (BT-549 breast),TGI (BT-549 breast),GI50 (PC-3 prostate),TGI (PC-3 prostate),GI50 (TK-10 renal) [µM],TGI (TK-10 renal),GI50 (HT29 colon),TGI (HT29 colon),GI50 (A549 NSCLC),TGI (A549 NSCLC),GI50 (A498 renal),TGI (A498 renal),GI50 (NCI-H522 lung),TGI (NCI-H522 lung),GI50 (NCI-H23 lung),TGI (NCI-H23 lung)
CCN(CC)CCOc1ccc2c(C)c(C(=O)OC)oc2c1C(=O)/C=C/c1ccc(OC)cc1,20.6 µM,39.4 µM,2.01 µM,5.46 µM,1.94,5.14 µM,1.9 µM,13 µM,17.6 µM,40.6 µM,22.8 µM,44.4 µM,4.3 µM,15.2 µM,2.93 µM,8.34 µM
COc1cc(/C=C2\C(=O)N(C)c3ccccc32)cc(OC)c1OC,33.4 µM,> 100 µM,10.5 µM,> 100 µM,31.1,> 100 µM,14.7 µM,> 100 µM,26.3 µM,> 100 µM,33 µM,> 100 µM,11.2 µM,37.8 µM,21.2 µM,73.1 µM
c1cncc(C2ONC3=NCCN32)c1 (configuration not stated),22.9 µM,70 µM,30.8 µM,> 100 µM,10.9,70.6 µM,35.1 µM,> 100 µM,40.5 µM,> 100 µM,16.6 µM,40.2 µM,9.59 µM,> 100 µM,54 µM,> 100 µM
COC(=O)c1ccc2[nH]c(O)c(C(=Nc3ccc(N(C)C(=O)CN4CCN(C)CC4)cc3)c3ccccc3)c2c1,1.65 µM,3.28 µM,1.04 µM,25.5 µM,3.05,17 µM,,,1.46 µM,5.31 µM,1.91 µM,5.39 µM,1.49 µM,4.41 µM,1.29 µM,4.14 µM
COc1cc(N(CCC#N)CCC#N)ccc1/C(N=Nc1ccc(C(=O)O)cc1)=N/NC(=O)c1cc(Br)ccc1O,> 150 µg/mL,> 150 µg/mL,81 µg/mL,> 150 µg/mL,,,58.5 µg/mL,> 150 µg/mL,79.4 µg/mL,> 150 µg/mL,> 150 µg/mL,> 150 µg/mL,110 µg/mL,> 150 µg/mL,> 150 µg/mL,> 150 µg/mL
Fc1ccc(-c2nn3c(COc4ccc(Cl)cc4)nnc3s2)cc1Oc1ccccc1,24.8 µM,55.3 µM,0.0735 µM,13.6 µM,13.8,30.3 µM,> 47.9 µM,> 74.8 µM,21.9 µM,> 100 µM,15.3 µM,51.8 µM,26.1 µM,> 66.8 µM,20.4 µM,40.2 µM
Cc1ccnc(Nc2ccc([N+](=O)[O-])c(NCCN3CCOCC3)n2)c1,0.0208 µM and 0.0191 µM,23.4 µM,0.00603 µM,39.5 µM,18.5,62 µM,0.00438 µM,18.3 µM,0.0141 µM,> 100 µM,0.00325 µM,0.22 µM,0.00209 µM,0.00686 µM,0.0352 µM and 0.0156 µM,40.8 µM
O=C(c1ccccc1)C(Br)C(Br)c1ccccc1 (configuration not stated),12.8 µM,25.6 µM,18.3 µM,33.4 µM,1.59,3.01 µM,,,18.3 µM,39.2 µM,12.8 µM,25.5 µM,1.18 µM,2.62 µM,10.4 µM,23.8 µM
CC1(C)CC[C@]2(C(=O)O)CC[C@]3(C)C(=CC[C@@H]4[C@@]5(C)C/C(=C/c6ccco6)C(=O)C(C)(C)[C@@H]5CC[C@]43C)[C@@H]2C1,4.01 µM,23.4 µM,2.62 µM,14.9 µM,6.11,89.8 µM,3.14 µM,14.1 µM,2.6 µM,23.5 µM,6.14 µM,45.6 µM,3.22 µM,24.3 µM,3.13 µM,17.6 µM
CC1=C2[C@@H](CC1)[C@]1(C)O[C@@](C3CC3)(C[C@H]1OC(=O)CO)[C@H]2OC(=O)/C=C/c1ccccc1,0.148 µM,7.74 µM,13 µM,28.4 µM,18.7,33.8 µM,16.1 µM,32.2 µM,13.2 µM,27.3 µM,0.0998 µM,0.605 µM,15.9 µM,32.4 µM,16.6 µM,36 µM
NC(=O)c1ncn(C2OC(CO)C(O)C2O)c1N (configuration not stated),> 100 µM,> 100 µM,> 100 µM,> 100 µM,> 100,> 100 µM,> 100 µM,> 100 µM,> 100 µM,> 100 µM,> 100 µM,> 100 µM,> 100 µM,> 100 µM,> 100 µM,> 100 µM
CNCc1ccc(-c2[nH]c3cc(F)cc4c3c2CCNC4=O)cc1,17.4 µM,36.4 µM,23.6 µM,> 100 µM,29.2,72.7 µM,19.5 µM,76.3 µM,19.4 µM,> 71.2 µM,21.6 µM,53.8 µM,19 µM,39.4 µM,20.8 µM,> 56.7 µM
C=C(Cl)[C@@](Cl)(CBr)CC[C@@H](Br)C(C)(C)Cl,,22.3 µM,0.28 µM,1.42 µM and 1.29 µM,0.228,0.545 µM and 0.679 µM,1.28 µM,4.48 µM and 0.635 µM,1.67 µM,4.12 µM and 4.11 µM,,5.57 µM and 1.93 µM,,34.5 µM and 43.5 µM,13.4 µM,30.2 µM and 29.1 µM
C=CCN=C(N/N=C/c1ccc([N+](=O)[O-])o1)NS(=O)(=O)c1cc(C(=O)Nc2ccccc2)c(Cl)cc1SCC(N)=O,10.4 µM,31.8 µM,33 µM,> 100 µM,51.8,> 100 µM,40.8 µM,> 100 µM,> 100 µM,> 100 µM,77.8 µM,> 100 µM,27.8 µM,67.1 µM,20.9 µM,49.6 µM
N/C(=N\C(N)=N\c1nc2ccccc2s1)c1cnccn1,3.97 µM,96 µM,3.78 µM,> 100 µM,2.53,7.96 µM,2.87 µM,> 100 µM,,,1.45 µM,3.89 µM,2.16 µM,6.16 µM,3 µM,24.8 µM
CCSc1ncc(Br)c(Sc2nc(N)nc3nc[nH]c23)n1,4.11 µM,67 µM,4.77 µM,> 100 µM,2.55,25.9 µM,5.74 µM,80.3 µM,21 µM,> 100 µM,10.1 µM,> 100 µM,3.18 µM,64.9 µM,2.69 µM,> 100 µM
N#CC(NC(=O)CCl)=C(Cl)Cl,1.93 µM,4.1 µM,1.69 µM,4.22 µM,1.74,3.4 µM,1.76 µM,3.44 µM,3.51 µM,13.8 µM,1.86 µM,3.88 µM,0.437 µM,1.83 µM,1.7 µM,3.56 µM
Cc1nc2c(Br)cc(Br)cc2c(=O)n1-c1ccccc1NC1OCC(O)C(O)C1O (configuration not stated),,> 100 µM,,> 100 µM,,> 100 µM,,66.2 µM and 53.5 µM,34.8 µM and 10.1 µM,> 100 µM and 34.6 µM,87.2 µM and 18.3 µM,> 100 µM and 45.6 µM,,92.4 µM and 47.1 µM,,> 100 µM
COc1cc(OC)cc(-c2ccc(-c3ccc(C(=N)N)cn3)s2)c1,10.5 µM,26.4 µM,1.88 µM,3.63 µM,2.06,4.09 µM,2.11 µM,4.89 µM,2.19 µM,4.69 µM,,,2.27 µM,5.59 µM,1.78 µM,3.5 µM
CCOc1ccc(Nc2nc(-c3c(C)nc4ncccn34)cs2)cc1,0.0268 µM,14.9 µM,0.0185 µM,17.5 µM,12.8,43 µM,,,0.0268 µM,20.5 µM,< 0.01 µM,0.0678 µM,< 0.01 µM,1.57 µM,0.0623 µM,22.2 µM
Nc1ncc(C2[C@H](CNC(=O)c3cc(Br)c[nH]3)C(CNC(=O)c3cc(Br)c[nH]3)[C@@H]2c2cnc(N)[nH]2)[nH]1 (some centres not stated),6.71 µM,> 50 µM,> 50 µM,> 50 µM,> 50,> 50 µM,,,> 50 µM,> 50 µM,> 50 µM,> 50 µM,> 50 µM,> 50 µM,> 50 µM,> 50 µM
NC(N)=N/N=C/c1c(-c2ccc(Cl)c([N+](=O)[O-])c2)nc2sc3ccccc3n12,0.895 µM,2.12 µM,0.738 µM,1.4 µM,0.95,1.91 µM,1.93 µM,> 50 µM,1.61 µM,> 12.2 µM,3.9 µM,11.2 µM,3.66 µM,> 50 µM,,

# From PubChem BioAssay (NCI)
